Laboratory results: patent publication US20110263642A1, “METHODS FOR TREATMENT OF MULTIPLE SCLEROSIS” (FibroGen, Inc., priority 2008, published 2011)
Like-named read-outs stand apart in the source and are kept apart here.

Legend:
[1] = system: EAE animal model of multiple sclerosis; test: EAE induced by MBP injection in Lewis rats, neurological disease scoring (first study, dosing day 3-21); assay type: in vivo; conditions: for reduction in disease severity compared to vehicle-treated control EAE animals: day 3 to day 21 after MBP injection
Description: Experimental allergic encephalomyelitis (EAE, also referred to as experimental autoimmune encephalomyelitis) is currently the best animal model of human multiple sclerosis (MS). In this model, induction of EAE occurs following, for example, injection of spinal cord homogenate or central nervous system (CNS) antigens, such as myelin basic protein (MBP), myelin olidgodendrocyte glycoprotein, or proteolipid protein. Approximately 10 days following injection of CNS antigens, susceptible rats (e.g., Lewis rats) develop a progressive paralysis similar to that observed in humans.
Female Lewis rats of approximately 220 grams were used in this study (Janvier; Le Genest St Isle, France). Compounds of the invention were formulated in water containing 10% cremophor and 60 mM L-histidine to achieve a final concentration of either 2 mg/ml or 6 mg/ml. Dexamethasone was dissolved in saline at a concentration of 0.1 mg/ml.
Induction of EAE by injection with myelin basic protein (MBP) antigen was performed as follows. Prior to injection with the MBP antigen (day 0), rats were anaesthetized by injection of 60 mg/kg of ketamine (Imalgene500®, Rhone Mérieux, Lyon, France) plus 4 mg/kg of xylazine (Rompum 2%, Bayer Pharma, Kiel, Germany). Rats were then injected in the hind footpad with a total volume of 100 μl of MBP inoculum solution per paw containing 100 μg of MBP antigen (Sigma, L'Isle d'Abeau Chesnes, France) emulsified (1:1) containing incomplete Freund's adjuvant (IFA) (Sigma, L'Isle d'Abeau Chesnes, France) and 500 μg of heat-inactivated mycobacterium tuberculosis (strain H 37 RA from Difco). Control rats were similarly injected with an equivalent volume of inoculum without MBP. […]
Neurological scoring was performed daily from day 7 to day 21 following BP injection. […] Analysis of variance (ANOVA) was performed on data from the measured (clinical score) or the calculated (severity score) parameters. […]
(§1) Cumulative EAE disease score, used as a measure of overall disease severity, was determined by adding all disease/neurological scores for each animal over the time course of the experiment.

[2] = system: EAE animal model of multiple sclerosis; test: EAE induced by MBP injection in Lewis rats, prophylactic versus treatment dosing (second series); assay type: in vivo
Description: In another series of experiments, the effectiveness of compounds and methods of the present invention on treating established multiple sclerosis in an EAE model was examined as follows. EAE was induced in female Lewis rats (200-220 g) as described above. Compound of the invention (30 mg/kg) or vehicle control was administered p.o. daily from day 3 to day 21 following MBP injection (prophylactic group) or from the day first symptoms appeared to day 21 (treatment group). Dexamethasone (1 mg/kg) was administered subcutaneously at 1 mg/kg from day 8 to day 12 following MBP injection.
Neurological scoring was performed daily from day 7 to day 21 following […]. Grading of disease severity (i.e., disease score) was based on the following observations performed by two different observers: 0=no abnormality; 1=distal weakness of the tail; 2=complete weakness of the tail; 3=mild weakness in one or two hindlimbs; 4=moderate paraparesia of one or two hindlimbs; 5=total paraplegia. Analysis of variance (ANOVA) was performed on data from the measured (clinical score) or the calculated (severity score) parameters. Fisher's Protected Least Significant Difference was used for pairwise comparisons. p value≦0.05 were considered significant.
as §1

[3] = system: Oligodendrocytes (MO3.13 cells); test: Ceramide-induced cell death of oligodendrocytes, Calcein AM viability; assay type: cell-based; conditions: for viability at 20 µM: ceramide 2.25 μM, compound 20 μM, non-ceramide control = 100
Description: (See e.g., Craighead et al. (2000) Neurosci Lett. 278:125-8; Jana et al. (2007) J Neuroimmune Pharmacol. 2:184-93; Jana et al. (2009) J Neurol Sci. 278:5-15; Singh et al. (1998) J Biol. Chem. 273:20354-62.) In this model, addition of ceramide to cultured oligodendrocytes results in oxidative stress-induced cell death (i.e. apoptosis). The effect of compounds and methods of the present invention on the ability to improve oligodendrocyte viability following ceramide challenge was examined as follows. Oligodendrocytes (MO3.13 cells; Cedarlane Laboratories, Burlington, N.C.) were plated in 96-well culture dishes at a density of 4000 cells per well and cultured at 37° C., 10% CO2 in DMEM containing L-glutamine, sodium pyruvate, and 25 mM glucose (Mediatech Inc., Manassas, Va.) and supplemented with 10% FBS (Invitrogen Corporation, Carlsbad, Calif.). The next day, the plating media was removed and replaced with DMEM containing L-glutamine (Invitrogen Corporation, Carlsbad, Calif.) and supplemented with 5.5 mM glucose. Cells were then treated with vehicle (0.015% DMSO) or ceramide (Sigma-Aldrich, St. Louis, Mo.) plus vehicle (0.05% DMSO) or a compound of the invention (20 μM).
For cells treated longer than 3 days, half the media was removed after the third day of treatment and replaced with an equal volume of fresh treatment media containing vehicle (0.015% DMSO) or ceramide plus vehicle (0.05% DMSO) or a compound of the invention.
Cell viability was assessed 3, 4, and 5 days after treatment using the following protocol. Treatment media was removed from the cells and 100 ul of 1.67 uM Calcein AM reagent (Invitrogen Corporation, Carlsbad, Calif.) prepared in DMEM containing L-glutamine (Invitrogen Corporation, Carlsbad, Calif.) and supplemented with 5.5 mM glucose was added to each well. Cells were returned to 37° C. in a 10% CO2 incubator for approximately 30 minutes before assessing fluorescence (Ex 485 nm/Em 538 nm) using a microplate reader (Molecular Devices, Sunnyvale, Calif.). Images were taken of representative wells using a fluorescent microscope equipped with a camera (Nikon, Melville, N.Y.) and imaging software (Nikon, Melville, N.Y.).

## N#Cc1nc(C(=O)NCC(=O)O)c(O)c2c(Oc3ccccc3)cccc12 [Compound A, [(1-Cyano-4-hydroxy-5-phenoxy-isoquinoline-3-carbonyl)-amino]-acetic acid]
[1]; 10 mg/kg p.o. daily
  reduction in disease severity compared to vehicle-treated control EAE animals: 17%
[1]; 30 mg/kg p.o. daily, p<0.05
  reduction in disease severity compared to vehicle-treated control EAE animals: 46%
[1]; either 10 mg/kg or 30 mg/kg p.o. daily, day 3-21, FIG. 2
  cumulative disease score (AUC): reduced
[2]; 30 mg/kg p.o., both prophylactic group and treatment group, FIGS. 4A and 4B
  cumulative disease score (AUC): reduced
[2]; prophylactic group: 30 mg/kg p.o. daily, day 3 to day 21
  reduction in disease severity compared to vehicle-treated control EAE animals: 31%
[2]; treatment group: 30 mg/kg p.o. daily, first symptom to day 21, p<0.05
  reduction in disease severity compared to vehicle-treated control EAE animals: 19%
[3]; 72 h, read-out: % Viable at Day 3
  viability at 20 µM: 82%
[3]; 96 h, read-out: % Viable at Day 4
  viability at 20 µM: 46%
[3]; 120 h, read-out: % Viable at Day 5
  viability at 20 µM: 33%
[3]; ceramide-challenged, day 5
  increase in viability compared to vehicle treated oligodendrocytes: 3 fold
